Values of other authors, collected in patent US20190078102A1, “BIOSYNTHETIC PRODUCTION OF STEVIOL GLYCOSIDES AND PROCESSES THEREFORE” (Conagen-Inc., priority 2017, published 2019).

Conditions: background statement

C=C1C[C@@]23CC[C@H]4[C@@](C)(CCC[C@@]4(C)C(=O)O[C@@H]4O[C@H](CO)[C@@H](O)[C@H](O)[C@H]4O)[C@@H]2CC[C@]1(O[C@@H]1O[C@H](CO)[C@@H](O)[C@H](O)[C@H]1O[C@@H]1O[C@H](CO)[C@@H](O)[C@H](O)[C@H]1O)C3 [stevioside]
times sweeter than sucrose: 100-150 times
